Reference: BindingDB's records for PubMed 2867217 (Smith Kline & French Laboratories, 1986)
Values joined by “and” are separate entries in the source; they are usually repeats but may differ in a detail not shown here. Identical values can stand only once. Counter-ions that a name gives are not always drawn.

Legend:
[1] = molecular target: T1, Alpha-2B adrenergic receptor (Oryctolagus cuniculus, UniProt O77830)
T1 sequence (O77830 whole entry): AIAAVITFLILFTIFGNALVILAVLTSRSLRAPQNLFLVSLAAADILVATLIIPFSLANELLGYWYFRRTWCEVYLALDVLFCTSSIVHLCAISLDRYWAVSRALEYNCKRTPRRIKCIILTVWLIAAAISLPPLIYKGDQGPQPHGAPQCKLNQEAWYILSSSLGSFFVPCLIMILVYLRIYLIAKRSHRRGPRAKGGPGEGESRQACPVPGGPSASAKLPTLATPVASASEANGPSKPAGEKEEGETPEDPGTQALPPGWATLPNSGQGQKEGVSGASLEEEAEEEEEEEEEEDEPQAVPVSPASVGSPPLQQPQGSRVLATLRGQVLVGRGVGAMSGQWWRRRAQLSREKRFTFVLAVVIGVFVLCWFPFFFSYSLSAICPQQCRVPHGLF

[2] = molecular target: T2, Alpha-1A adrenergic receptor (Oryctolagus cuniculus, UniProt O02824)
T2 sequence (O02824 whole entry): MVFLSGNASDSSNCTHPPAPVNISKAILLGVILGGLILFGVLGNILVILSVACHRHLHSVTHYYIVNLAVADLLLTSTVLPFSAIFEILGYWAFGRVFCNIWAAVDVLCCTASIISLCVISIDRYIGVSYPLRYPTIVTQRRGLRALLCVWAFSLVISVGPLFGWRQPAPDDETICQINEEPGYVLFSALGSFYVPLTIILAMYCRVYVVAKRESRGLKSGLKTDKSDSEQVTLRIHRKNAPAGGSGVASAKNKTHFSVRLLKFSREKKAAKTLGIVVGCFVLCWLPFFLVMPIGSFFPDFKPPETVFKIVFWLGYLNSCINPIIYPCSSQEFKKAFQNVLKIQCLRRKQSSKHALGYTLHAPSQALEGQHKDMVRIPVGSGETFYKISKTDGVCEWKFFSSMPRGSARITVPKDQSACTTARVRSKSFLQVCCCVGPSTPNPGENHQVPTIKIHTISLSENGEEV

[3] = molecular target: T3, Alpha-1D adrenergic receptor (Mus musculus, UniProt P97714)
T3 sequence (P97714 whole entry): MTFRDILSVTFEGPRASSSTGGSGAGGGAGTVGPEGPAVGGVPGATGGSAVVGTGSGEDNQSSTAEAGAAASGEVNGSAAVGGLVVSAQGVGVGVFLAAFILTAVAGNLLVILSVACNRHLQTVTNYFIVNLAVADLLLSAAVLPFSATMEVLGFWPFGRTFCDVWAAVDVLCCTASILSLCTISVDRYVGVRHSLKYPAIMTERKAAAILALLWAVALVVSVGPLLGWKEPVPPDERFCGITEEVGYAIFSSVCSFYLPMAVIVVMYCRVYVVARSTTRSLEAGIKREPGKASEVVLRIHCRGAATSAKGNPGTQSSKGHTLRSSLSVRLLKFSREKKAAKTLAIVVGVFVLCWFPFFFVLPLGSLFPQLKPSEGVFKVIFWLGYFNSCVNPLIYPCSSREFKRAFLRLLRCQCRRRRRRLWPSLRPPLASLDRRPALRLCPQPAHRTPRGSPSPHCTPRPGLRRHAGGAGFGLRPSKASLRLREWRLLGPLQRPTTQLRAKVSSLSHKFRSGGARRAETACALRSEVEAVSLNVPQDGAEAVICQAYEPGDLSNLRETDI

[4] = molecular target: T4, Alpha-1A adrenergic receptor (Canis lupus familiaris, UniProt O77621)
T4 sequence (O77621 whole entry): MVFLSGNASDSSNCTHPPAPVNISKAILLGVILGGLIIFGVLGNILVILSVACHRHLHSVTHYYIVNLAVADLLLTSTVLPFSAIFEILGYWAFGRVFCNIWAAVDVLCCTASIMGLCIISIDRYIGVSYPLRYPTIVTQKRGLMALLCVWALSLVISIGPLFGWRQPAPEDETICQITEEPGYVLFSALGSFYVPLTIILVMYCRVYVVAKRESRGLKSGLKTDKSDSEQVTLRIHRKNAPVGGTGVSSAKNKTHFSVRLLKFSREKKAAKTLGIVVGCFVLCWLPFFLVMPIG

[5] = molecular target: T5, Alpha-2A adrenergic receptor (Cavia porcellus, UniProt Q60474)
T5 sequence (Q60474 whole entry): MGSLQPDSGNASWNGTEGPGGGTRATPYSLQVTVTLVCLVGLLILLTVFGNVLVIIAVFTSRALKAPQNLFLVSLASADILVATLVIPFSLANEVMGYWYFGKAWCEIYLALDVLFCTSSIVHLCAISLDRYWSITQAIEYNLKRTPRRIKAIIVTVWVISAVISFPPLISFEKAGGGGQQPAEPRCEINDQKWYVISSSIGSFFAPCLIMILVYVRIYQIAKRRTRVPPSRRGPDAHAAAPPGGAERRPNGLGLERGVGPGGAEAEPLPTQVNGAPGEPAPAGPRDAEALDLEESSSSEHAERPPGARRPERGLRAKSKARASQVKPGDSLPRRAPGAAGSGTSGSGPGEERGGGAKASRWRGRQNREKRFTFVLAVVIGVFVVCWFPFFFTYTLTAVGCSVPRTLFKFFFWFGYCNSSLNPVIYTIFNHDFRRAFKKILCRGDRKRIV

[6] = molecular target: T6, Alpha-2B adrenergic receptor (Canis lupus familiaris, UniProt Q2MDQ0)
T6 sequence (Q2MDQ0 whole entry): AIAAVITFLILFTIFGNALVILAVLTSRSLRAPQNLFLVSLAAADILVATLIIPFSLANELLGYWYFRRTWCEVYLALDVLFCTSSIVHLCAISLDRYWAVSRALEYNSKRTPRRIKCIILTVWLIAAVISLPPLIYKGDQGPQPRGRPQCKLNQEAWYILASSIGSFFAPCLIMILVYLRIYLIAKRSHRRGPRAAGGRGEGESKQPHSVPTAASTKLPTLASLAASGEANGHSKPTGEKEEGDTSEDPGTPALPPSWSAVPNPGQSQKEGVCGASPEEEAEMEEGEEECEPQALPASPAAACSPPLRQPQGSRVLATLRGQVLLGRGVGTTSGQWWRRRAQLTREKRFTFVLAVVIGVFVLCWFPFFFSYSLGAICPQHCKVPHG

SMILES	Ki [1] [nM]	Ki [2]	Ki [3] [nM]	Ki [4] [nM]	Ki [5] [nM]	Ki [6] [nM]
COC(=O)[C@@H]1[C@H]2C[C@H]3c4[nH]c5ccccc5c4CCN3C[C@@H]2CC[C@@H]1O [yohimbic acid methyl ester]	21	1100 nM and 275 nM				
c1ccc2c(c1)OCC(C1=NCCN1)O2 (stereo not given)		2300 nM	12			
CN1CCc2cccc(Cl)c2CC1 [MLS002172470]		900 nM		1100	13	42
COC(=O)[C@H]1[C@H]2C[C@H]3c4[nH]c5ccccc5c4CCN3C[C@H]2CC[C@@H]1O [RAUWOLSCINE HYDROCHLORIDE]		1800 nM and 4000 nM and 1300 nM		234		
